Data set [1] can be described thus: Human liver microsomal stability assay. As to conditions: human, microsomes. In kind it is in vitro ADME. The source says: (§1) Further examples of useful assays include metabolic stability assays, such as but not limited to e.g., liver microsomal clearance assays which provide measurement such as, but not limited to e.g., liver microsomal clearance half-life (t1/2), liver microsomal intrinsic clearance (CLint), and the like. Such measurements are useful in assessing various characteristics of a subject compound, such as e.g., the availability of an intact compound to provide a pharmacological effect. A compound having a longer microsomal clearance half-life (t1/2), e.g., than a reference compound, will provide better exposure of the intact compound and greater availability to produce the relevant pharmacological effect. A compound having a less microsomal clearance, e.g., as measured by liver microsomal intrinsic clearance (CLint), will similarly result in greater exposure of the intact compound available for an increase in the relevant pharmacological effect, e.g., as compared to that of a reference compound with a higher liver microsomal intrinsic clearance (CLint). Other useful assays include in vitro hepatocyte metabolic stability assays.
(§2) Such assessments included human and mouse liver microsomal stability assays as well as 6-hour mouse PK studies.
(Liver microsomes are vesicles of endoplasmic reticulum, rich in cytochrome P450 enzymes.)

Data set [2] has as its system mouse model of turpentine oil (TO)-induced anemia of inflammation. The experiment in a line: Turpentine oil induced anemia of inflammation. In kind it is in vivo. The settings on record: PO, hinokitiol as comparator in the respective studies. The method, then: Assay 3: Turpentine Oil Induced Anemia of Inflammation This is a model of anemia of inflammation by turpentine oil injection in combination with phlebotomy. Conditioning: Mice receive 3 doses of turpentine oil subcutaneously within 2 weeks. Mice are anesthetized and then administered 0.1 mL/20 g body weight of turpentine oil (TO) via subcutaneous injection in the scapular fat area using syringe and 27 G needle on Day 1, 7, and 14. On day 14, after the final injection of turpentine oil, a controlled 10% hemorrhage (approximately 200 uL) is accomplished via anesthetized orbital sinus bleed to increase the magnitude of anemia. The bleeding uses an orbital blood sampling technique, 200 uL capillary bleeding device (essentially a vacutainer tube with a glass capillary tube attached). Clean gauze lightly pre-soaked with sterile saline is held over the eye immediately following hemorrhage to promote hemostasis. Treatment: On day 15, 16 hours post last dose of turpentine oil, sham group and TO plus bleeding group are terminated. These two groups are used as part of control. On day 15, vehicle group and compound treatment groups receive proper vehicle or compounds at a specified dose accordingly, treatments can be oral once a day or oral twice a day. The treatment continues for 7 days, and then is terminated on day 21. On day 21, 3 hours post last treatment of test articles, the vehicle and treatment group are terminated. […] Depth of anesthesia is monitored by toe pinch method. […] Data analysis: The iron mobilization impact of compounds is assessed based on the serum iron level, transferrin saturation and TIBC; the ability of test article to restore normal iron homeostasis and metabolism, and subsequent rescue of anemia, is assessed by comparing the hemoglobin and hematocrit levels of test article treated groups with vehicle treated group. Test articles were evaluated in the described mouse model of turpentine oil (TO)-induced anemia of inflammation (A of I). […]

The nature of the next data set: Mouse 6-hour PK study. The settings on record: mouse, in vivo.
Data set [3] is described as follows: Mouse liver microsomal stability assay. In kind it is in vitro ADME. The settings on record: mouse, microsomes.
From the text: as §1, §2

Each structure is given as a SMILES string. Marks after values point to notes of the source that are not given here.

Turning to `Cc1cccc(F)c(=O)c1O` [Ex. 32, 7-fluoro-2-hydroxy-3-methylcyclohepta-2,4,6-trien-1-one], in data set [1], the “clearance half-life (t1/2) and intrinsic clearance (CLint) as compared to hinokitiol” value (shortened to “clearance half-life … compared to hinokitiol”) is “longer clearance half-life (t1/2) and lower intrinsic clearance (CLint), or both as compared to hinokitiol”; the half-life (usually the time needed for the level to fall by half in the phase considered) is > 2.5 h; the microsomal CLint (commonly a measure of how fast metabolising enzymes remove a compound, apart from limits set by blood flow) was < 25 µL/min/mg. In addition, in data set [2], the “levels of Hgb compared with hinokitiol” value is on record as “comparable or higher levels of Hgb than hinokitiol”. Besides, in “Mouse 6-hour PK study”, the AUC(0-t) (in general, exposure summed from dosing to a finite time, without extrapolation to infinity) is > 20000 ng·h/mL; the Cmax – broadly, the highest concentration seen after dosing – lay within 5000 to 20000 ng/mL; the half-life was 1.25 to 4.99 h; the “mouse 6-hour PK properties as compared to hinokitiol” value is recorded as “one or more improved mouse 6-hour PK properties as compared to hinokitiol”. In data set [3], the “clearance half-life … compared to hinokitiol” value was “longer clearance half-life (t1/2) and lower intrinsic clearance (CLint), or both as compared to hinokitiol”; the half-life is > 2.5 h; the microsomal CLint was < 25 µL/min/mg.
For `O=c1ccc(OC2COC2)ccc1O` [Ex. 12, 2-hydroxy-5-(oxetan-3-yloxy)cyclohepta-2,4,6-trien-1-one], in data set [1], the “Human CLint” value is 0.00* μL/min/mg protein; the “Human t1/2” value is on record as “∞*”; the “clearance half-life … compared to hinokitiol” value was “longer clearance half-life (t1/2) and lower intrinsic clearance (CLint), or both as compared to hinokitiol”. Moreover, in the data set “Mouse 6-hour PK study”, the AUC(0-t) was < 499 ng·h/mL, the Cmax lay within 500 to 1500 ng/mL, the half-life fell in the range of 1.25 to 4.99 h and the “mouse 6-hour PK properties as compared to hinokitiol” value is recorded as “one or more improved mouse 6-hour PK properties as compared to hinokitiol”. Moreover, in data set [3], the “Mouse CLint” value was 0.00* μL/min/mg protein; the “Mouse t1/2” value was “∞*”; the “clearance half-life … compared to hinokitiol” value is “longer clearance half-life (t1/2) and lower intrinsic clearance (CLint), or both as compared to hinokitiol”.
Consider `CC(C)c1ccc(F)c(=O)c(O)c1` [Ex. 1, 7-fluoro-2-hydroxy-4-isopropylcyclohepta-2,4,6-trien-1-one], for which, in data set [1], the “clearance half-life … compared to hinokitiol” value is “longer clearance half-life (t1/2) and lower intrinsic clearance (CLint), or both as compared to hinokitiol”; the half-life lay in the range of 0.417 to 0.833 h; the microsomal CLint was in the range of 25 to 50 µL/min/mg. For the same molecule, in data set [2], the “levels of Hgb compared with hinokitiol” value was “comparable or higher levels of Hgb than hinokitiol”. For the same molecule, in “Mouse 6-hour PK study”, the AUC(0-t) was in the range of 5000 to 20000 ng·h/mL, the Cmax lay in the range of 5000 to 20000 ng/mL, the half-life was 1.25 to 4.99 h and the “mouse 6-hour PK properties as compared to hinokitiol” value is listed as “one or more improved mouse 6-hour PK properties as compared to hinokitiol”. Also, in data set [3], the “clearance half-life … compared to hinokitiol” value was “longer clearance half-life (t1/2) and lower intrinsic clearance (CLint), or both as compared to hinokitiol”; the half-life was > 2.5 h; the microsomal CLint was < 25 µL/min/mg.
For the molecule `O=c1c(F)cccc(C2CCOCC2)c1O` [Ex. 36, 7-fluoro-2-hydroxy-3-(tetrahydro-2H-pyran-4-yl)cyclohepta-2,4,6-trien-1-one], in data set [1], the “Human CLint” value is recorded as 0.00* μL/min/mg protein; the “Human t1/2” value was “∞*”; the “clearance half-life … compared to hinokitiol” value is “longer clearance half-life (t1/2) and lower intrinsic clearance (CLint), or both as compared to hinokitiol”. For the same molecule, in the data set “Mouse 6-hour PK study”, the AUC(0-t) was > 20000 ng·h/mL, the Cmax was > 20000 ng/mL, the half-life was in the range of 1.25 to 4.99 h and the “mouse 6-hour PK properties as compared to hinokitiol” value is reported as “one or more improved mouse 6-hour PK properties as compared to hinokitiol”. Further, in data set [3], the “clearance half-life … compared to hinokitiol” value is “longer clearance half-life (t1/2) and lower intrinsic clearance (CLint), or both as compared to hinokitiol”; the half-life was > 2.5 h; the intrinsic clearance (microsomal CLint) was < 25 µL/min/mg.
For the molecule `O=c1ccccc([C@@H]2CCCO2)c1O` (single isomer, unassigned) [Ex. 42], in data set [1], the “clearance half-life … compared to hinokitiol” value is “longer clearance half-life (t1/2) and lower intrinsic clearance (CLint), or both as compared to hinokitiol”; the half-life was 0.833 to 1.67 h; the microsomal CLint was < 25 µL/min/mg. Moreover, the “levels of Hgb compared with hinokitiol” value in data set [2] was “comparable or higher levels of Hgb than hinokitiol”. In “Mouse 6-hour PK study”, the AUC(0-t) fell in the range of 500 to 1500 ng·h/mL, the peak concentration (Cmax) is 1500 to 5000 ng/mL, the half-life was < 1.25 h and the “mouse 6-hour PK properties as compared to hinokitiol” value was “one or more improved mouse 6-hour PK properties as compared to hinokitiol”. In data set [3], the “clearance half-life … compared to hinokitiol” value is “longer clearance half-life (t1/2) and lower intrinsic clearance (CLint), or both as compared to hinokitiol”; the half-life was 0.417 to 0.833 h; the microsomal CLint lay in the range of 25 to 50 µL/min/mg.

(Values after patent publication US20230406803A1, “TROPOLONE DERIVATIVES AND TAUTOMERS THEREOF FOR IRON REGULATION IN ANIMALS” (Kinesid Therapeutics, Inc, priority 2020, published 2023).)
